The test system of one test is CEMO-1 cells. Briefly: ALL CEMO-1 xenograft survival. The format is in vivo, mice. The settings on record: 1 mg/kg i.v. daily for 28 days. As to the method:
Statistical results were calculated using the statistical software medcalc.
270 nM for MV4-11 cell line and 200 and 400 nM for OCI-Ly10). Extracellular HMGB1 from 48 h cell culture supernatants was quantified by means of the HMGB1 ELISA Kit II (Shino Test Corp.), following the manufacturer's instructions.
All animal studies had previous approval from the Animal Care and Ethics Committee of the University of Navarra, whereas experiments that used patient samples were approved by the Human Research Ethics Committees of University of Navarra.
The human ALL CEMO-1 xenograft mice model was generated by intravenously (i.v.) injection of 10x10^6 cells diluted in 100 µL of saline solution in the tail vein of a 6-8-week-old female BALB/cA- Rag2-/-γc-/- mice (n=12). Three days after injection, antitumor treatment was started intravenously in 6 mice. 1 mg/kg […]
The control group (n=6) received only
The mice weight was controlled and stable during the treatment.
Statistical results were calculated using the statistical software medcalc. […]
consecutive days. […] Statistical results were calculated using the statistical software medcalc. […]
The control group (n=6) received only saline solution. […] Statistical results were calculated using the statistical software medcalc. […]
washout period, hematological and liver parameters were measured. […]
washout period hematological and liver parameters were measured. […]

In another test the test system is UM-UC-1. Briefly: Cell proliferation assay (MTS). The format is cell-based. The note with it: Homo sapiens; Bladder.
The next test has as its system LAL-CUN-13. The test is described as follows: Cell proliferation assay (MTS). The note with it: Homo sapiens; ALL, 48 h. The format is cell-based.
The test system of a further test is SU-DHL-4. The test is described as follows: Cell proliferation assay (MTS). The settings on record: Homo sapiens, GC-DLBCL, 48 h. It counts as cell-based.
The test system of a further test is OCI-Ly1. Briefly: Cell proliferation assay (MTS). The settings on record: Homo sapiens, GC-DLBCL, 48 h. It counts as cell-based.
The target in the next test is T1, MARK3 (Homo sapiens, UniProt P27448).
T1 construct: purchased DiscoverX KINOMEscan (kinases); BPS Bioscience (epigenetic targets)
Briefly: KINOMEscan kinase profiling. The format is binding. The settings on record: read-out: Percent Control. The procedure: (§1) Kinase Selectivity Profiling
(§2) (out of which 90 are non-mutant kinases) was performed at DiscoverRx (http://www.discoverx.com/home) using the KINOMEscan™ screening platform at a test concentration of 10 µM. Results for primary screen […]
(§3) positive control signal) / (negative control signal – positive control signal) *100, where negative control corresponds to DMSO treatment (100%) and positive control to the signal obtained with a control competitive compound (0%). […]
(§4) using the Hill equation. Each target was assayed in duplicate. […]

The target in a further test is T2, KIT(D816V) (Homo sapiens, UniProt P10721, D816V).
T2 construct: purchased DiscoverX KINOMEscan (kinases); BPS Bioscience (epigenetic targets)
Briefly: KINOMEscan kinase profiling. It counts as binding. The settings on record: read-out: Percent Control. As to the method:
as §1, §2, §3, §4

Another test has as its target T3, CHEK1 (Homo sapiens, UniProt O14757).
T3 construct: purchased DiscoverX KINOMEscan (kinases); BPS Bioscience (epigenetic targets)
Briefly: KINOMEscan kinase profiling. The format is binding. The note with it: read-out: Percent Control. As to the method:
as §1, §2, §3, §4

In the next test the target is T4, TIE2 (Homo sapiens, UniProt Q02763).
T4 construct: purchased DiscoverX KINOMEscan (kinases); BPS Bioscience (epigenetic targets)
The test is described as follows: KINOMEscan kinase profiling. It counts as binding. The note with it: read-out: Percent Control. As to the method:
as §1, §2, §3, §4

The target of the next test is T5, FAK (Homo sapiens, UniProt Q05397).
T5 construct: purchased DiscoverX KINOMEscan (kinases); BPS Bioscience (epigenetic targets)
Briefly: KINOMEscan kinase profiling. The settings on record: read-out: Percent Control. It counts as binding. As to the method: as §1, §2, §3, §4

Another test concerns the target T6, KIT(V559D,T670I) (Homo sapiens, UniProt P10721, T670I/V559D).
T6 construct: purchased DiscoverX KINOMEscan (kinases); BPS Bioscience (epigenetic targets)
Briefly: KINOMEscan kinase profiling. It counts as binding. The note with it: read-out: Percent Control. The procedure: as §1, §2, §3, §4

In another test the target is T7, RET (Homo sapiens, UniProt P07949).
T7 construct: purchased DiscoverX KINOMEscan (kinases); BPS Bioscience (epigenetic targets)
The test is described as follows: KINOMEscan kinase profiling. It counts as binding. The settings on record: read-out: Percent Control. The procedure: as §1, §2, §3, §4

The target in a further test is T8, AXL (Homo sapiens, UniProt P30530).
T8 construct: purchased DiscoverX KINOMEscan (kinases); BPS Bioscience (epigenetic targets)
Briefly: KINOMEscan kinase profiling. The format is binding. The settings on record: read-out: Percent Control. The procedure:
as §1, §2, §3, §4

Another test concerns the target T9, p38-alpha (Homo sapiens, UniProt Q16539).
T9 construct: purchased DiscoverX KINOMEscan (kinases); BPS Bioscience (epigenetic targets)
Briefly: KINOMEscan kinase profiling. The note with it: read-out: Percent Control. The format is binding. The procedure: as §1, §2, §3, §4

A further test addresses T10, ADCK3 (Homo sapiens, UniProt Q8NI60).
T10 construct: purchased DiscoverX KINOMEscan (kinases); BPS Bioscience (epigenetic targets)
The test is described as follows: KINOMEscan kinase profiling. The format is binding. The settings on record: read-out: Percent Control. The procedure: as §1, §2, §3, §4

Test [1] concerns the target T11, JAK3(JH1domain-catalytic) (Homo sapiens, UniProt P52333).
T11 construct: JAK3(JH1domain-catalytic); purchased DiscoverRx (DiscoverX), KINOMEscan screening platform
Briefly: KINOMEscan kinase profiling. It counts as binding. The procedure:
as §1, §2, §3, §4

Another test has as its target T12, ALK (Homo sapiens, UniProt Q9UM73).
T12 construct: purchased DiscoverRx (KINOMEscan contract screen)
The test is described as follows: KINOMEscan kinase profiling. The format is binding. The procedure: as §1, §2, §3, §4

The next test has as its target T13, PIK3CG (Homo sapiens, UniProt P48736).
T13 construct: purchased DiscoverX KINOMEscan (kinases); BPS Bioscience (epigenetic targets)
Briefly: KINOMEscan kinase profiling. The format is binding. The note with it: read-out: Percent Control. As to the method: as §1, §2, §3, §4

Test [2] concerns the target T14, RSK2(Kin.Dom.1-N-terminal) (Homo sapiens, UniProt P51812).
T14 construct: RSK2(Kin.Dom.1-N-terminal); purchased DiscoverX KINOMEscan (kinases); BPS Bioscience (epigenetic targets)
Briefly: KINOMEscan kinase profiling. The settings on record: read-out: Percent Control. The format is binding. The procedure:
as §1, §2, §3, §4

Another test deals with T15, BMPR2 (Homo sapiens, UniProt Q13873).
T15 construct: purchased DiscoverX KINOMEscan (kinases); BPS Bioscience (epigenetic targets)
The test is described as follows: KINOMEscan kinase profiling. The note with it: read-out: Percent Control. The format is binding. As to the method:
as §1, §2, §3, §4

The target in the next test is T16, RIOK2 (Homo sapiens, UniProt Q9BVS4).
T16 construct: purchased DiscoverX KINOMEscan (kinases); BPS Bioscience (epigenetic targets)
The test is described as follows: KINOMEscan kinase profiling. It counts as binding. The settings on record: read-out: Percent Control. As to the method:
as §1, §2, §3, §4

In another test the test system is NP18. Briefly: Cell proliferation assay (MTS). It counts as cell-based. The settings on record: Homo sapiens; Pancreas.
The mark [3] stands for this setting: 10 µM, read-out: Percent Control.

T12 sequence (Q9UM73 19-1620): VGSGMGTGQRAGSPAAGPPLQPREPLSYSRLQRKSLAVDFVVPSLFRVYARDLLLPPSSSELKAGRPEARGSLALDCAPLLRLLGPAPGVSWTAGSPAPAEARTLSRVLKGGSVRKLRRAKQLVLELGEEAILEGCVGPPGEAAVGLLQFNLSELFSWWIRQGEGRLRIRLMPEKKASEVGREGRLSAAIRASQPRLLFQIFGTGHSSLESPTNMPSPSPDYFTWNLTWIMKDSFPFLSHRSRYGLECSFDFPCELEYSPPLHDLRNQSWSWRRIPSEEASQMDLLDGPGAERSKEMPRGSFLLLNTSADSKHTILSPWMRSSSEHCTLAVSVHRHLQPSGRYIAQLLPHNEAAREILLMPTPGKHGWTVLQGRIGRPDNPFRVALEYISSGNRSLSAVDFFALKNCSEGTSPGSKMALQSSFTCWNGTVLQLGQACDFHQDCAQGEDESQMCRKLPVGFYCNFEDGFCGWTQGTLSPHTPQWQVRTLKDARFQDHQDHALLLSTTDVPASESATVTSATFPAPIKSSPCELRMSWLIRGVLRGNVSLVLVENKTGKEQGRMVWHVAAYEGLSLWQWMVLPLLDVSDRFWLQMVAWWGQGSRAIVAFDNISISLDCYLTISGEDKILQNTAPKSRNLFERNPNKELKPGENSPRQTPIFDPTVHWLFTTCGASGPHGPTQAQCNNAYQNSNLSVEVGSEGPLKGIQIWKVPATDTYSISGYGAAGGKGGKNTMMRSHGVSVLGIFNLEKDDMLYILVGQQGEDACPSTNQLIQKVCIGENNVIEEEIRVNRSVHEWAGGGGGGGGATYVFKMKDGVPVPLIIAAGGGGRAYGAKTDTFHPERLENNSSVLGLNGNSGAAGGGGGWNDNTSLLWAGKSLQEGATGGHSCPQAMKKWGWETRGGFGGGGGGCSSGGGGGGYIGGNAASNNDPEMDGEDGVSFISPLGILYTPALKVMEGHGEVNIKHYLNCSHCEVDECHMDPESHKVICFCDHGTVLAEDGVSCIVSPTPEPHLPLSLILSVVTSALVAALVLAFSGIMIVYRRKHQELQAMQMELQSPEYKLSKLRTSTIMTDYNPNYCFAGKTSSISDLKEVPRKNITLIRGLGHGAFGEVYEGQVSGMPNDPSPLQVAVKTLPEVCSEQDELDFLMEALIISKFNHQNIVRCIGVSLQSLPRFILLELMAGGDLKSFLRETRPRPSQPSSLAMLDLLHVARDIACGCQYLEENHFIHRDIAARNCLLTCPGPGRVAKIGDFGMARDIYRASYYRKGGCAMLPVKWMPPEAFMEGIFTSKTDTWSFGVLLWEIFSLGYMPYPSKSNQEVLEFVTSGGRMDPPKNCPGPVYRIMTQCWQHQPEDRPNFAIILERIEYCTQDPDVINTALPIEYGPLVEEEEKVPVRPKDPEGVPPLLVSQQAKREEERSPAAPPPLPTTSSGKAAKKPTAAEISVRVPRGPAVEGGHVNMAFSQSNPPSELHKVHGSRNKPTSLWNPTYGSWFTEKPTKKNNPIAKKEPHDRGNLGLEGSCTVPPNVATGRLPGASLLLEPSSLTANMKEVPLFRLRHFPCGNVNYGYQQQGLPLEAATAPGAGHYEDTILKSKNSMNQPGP
T11 sequence (P52333 822-1111 limits assumed): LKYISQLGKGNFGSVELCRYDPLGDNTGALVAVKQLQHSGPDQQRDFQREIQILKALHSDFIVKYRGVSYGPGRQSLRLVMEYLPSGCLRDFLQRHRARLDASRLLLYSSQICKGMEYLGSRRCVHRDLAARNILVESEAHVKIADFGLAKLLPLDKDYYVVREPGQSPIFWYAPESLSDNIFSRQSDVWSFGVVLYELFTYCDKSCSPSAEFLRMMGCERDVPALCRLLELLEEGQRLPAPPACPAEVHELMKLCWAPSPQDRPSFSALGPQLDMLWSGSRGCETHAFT
T4 sequence (Q02763 23-1124): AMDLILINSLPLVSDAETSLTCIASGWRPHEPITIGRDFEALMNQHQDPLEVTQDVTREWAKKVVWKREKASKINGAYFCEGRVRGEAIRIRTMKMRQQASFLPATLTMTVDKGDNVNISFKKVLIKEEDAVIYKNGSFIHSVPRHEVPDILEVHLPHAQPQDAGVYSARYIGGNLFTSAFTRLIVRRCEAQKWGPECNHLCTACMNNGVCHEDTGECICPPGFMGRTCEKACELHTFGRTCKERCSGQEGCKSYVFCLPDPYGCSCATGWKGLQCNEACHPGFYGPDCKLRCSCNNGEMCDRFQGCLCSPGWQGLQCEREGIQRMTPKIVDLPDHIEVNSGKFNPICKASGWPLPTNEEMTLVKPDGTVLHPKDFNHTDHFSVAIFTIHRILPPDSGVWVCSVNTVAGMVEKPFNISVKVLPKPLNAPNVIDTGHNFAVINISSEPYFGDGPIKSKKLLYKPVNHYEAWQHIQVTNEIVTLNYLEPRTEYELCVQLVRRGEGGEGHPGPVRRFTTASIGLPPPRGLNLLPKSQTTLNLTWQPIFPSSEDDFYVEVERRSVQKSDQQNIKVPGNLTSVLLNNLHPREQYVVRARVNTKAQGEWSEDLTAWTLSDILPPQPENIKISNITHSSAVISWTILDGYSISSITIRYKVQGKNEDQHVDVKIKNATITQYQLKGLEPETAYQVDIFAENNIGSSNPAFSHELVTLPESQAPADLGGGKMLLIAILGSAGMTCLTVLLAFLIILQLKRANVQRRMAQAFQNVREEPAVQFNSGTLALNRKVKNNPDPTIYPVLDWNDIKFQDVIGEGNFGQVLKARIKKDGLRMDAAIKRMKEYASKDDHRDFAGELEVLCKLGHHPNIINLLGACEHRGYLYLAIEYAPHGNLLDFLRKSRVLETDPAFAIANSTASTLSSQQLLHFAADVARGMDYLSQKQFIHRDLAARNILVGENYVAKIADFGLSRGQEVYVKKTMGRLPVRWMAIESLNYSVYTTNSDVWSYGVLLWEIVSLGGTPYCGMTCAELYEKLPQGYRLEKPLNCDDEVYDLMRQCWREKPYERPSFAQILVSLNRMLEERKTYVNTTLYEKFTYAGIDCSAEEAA
T7 sequence (P07949 29-1114): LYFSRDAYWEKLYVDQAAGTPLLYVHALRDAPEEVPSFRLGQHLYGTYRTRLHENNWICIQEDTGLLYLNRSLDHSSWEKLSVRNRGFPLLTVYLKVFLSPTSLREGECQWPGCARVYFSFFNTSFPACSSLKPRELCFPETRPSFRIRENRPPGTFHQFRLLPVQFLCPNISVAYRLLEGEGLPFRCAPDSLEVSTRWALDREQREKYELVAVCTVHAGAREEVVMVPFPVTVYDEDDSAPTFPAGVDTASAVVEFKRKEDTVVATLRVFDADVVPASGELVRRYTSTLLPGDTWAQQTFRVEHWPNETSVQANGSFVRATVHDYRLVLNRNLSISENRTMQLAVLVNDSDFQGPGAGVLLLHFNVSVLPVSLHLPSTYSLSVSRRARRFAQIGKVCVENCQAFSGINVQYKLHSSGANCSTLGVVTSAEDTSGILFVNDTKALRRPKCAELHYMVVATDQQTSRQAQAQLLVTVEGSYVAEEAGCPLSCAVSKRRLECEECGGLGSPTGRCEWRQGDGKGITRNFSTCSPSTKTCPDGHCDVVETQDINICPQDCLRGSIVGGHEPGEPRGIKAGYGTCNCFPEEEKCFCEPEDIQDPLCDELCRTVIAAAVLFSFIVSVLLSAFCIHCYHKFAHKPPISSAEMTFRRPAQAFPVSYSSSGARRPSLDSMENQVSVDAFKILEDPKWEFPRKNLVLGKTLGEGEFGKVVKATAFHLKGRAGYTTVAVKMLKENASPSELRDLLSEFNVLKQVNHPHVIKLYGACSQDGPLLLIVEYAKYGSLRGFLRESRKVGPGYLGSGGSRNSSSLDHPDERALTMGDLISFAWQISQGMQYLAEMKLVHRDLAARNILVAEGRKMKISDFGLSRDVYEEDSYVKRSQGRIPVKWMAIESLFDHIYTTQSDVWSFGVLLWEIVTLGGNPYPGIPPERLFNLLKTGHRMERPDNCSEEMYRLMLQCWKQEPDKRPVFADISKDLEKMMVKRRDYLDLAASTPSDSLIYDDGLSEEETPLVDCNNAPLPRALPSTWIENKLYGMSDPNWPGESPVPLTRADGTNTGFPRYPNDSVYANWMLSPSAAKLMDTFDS
T3 sequence (O14757 whole entry): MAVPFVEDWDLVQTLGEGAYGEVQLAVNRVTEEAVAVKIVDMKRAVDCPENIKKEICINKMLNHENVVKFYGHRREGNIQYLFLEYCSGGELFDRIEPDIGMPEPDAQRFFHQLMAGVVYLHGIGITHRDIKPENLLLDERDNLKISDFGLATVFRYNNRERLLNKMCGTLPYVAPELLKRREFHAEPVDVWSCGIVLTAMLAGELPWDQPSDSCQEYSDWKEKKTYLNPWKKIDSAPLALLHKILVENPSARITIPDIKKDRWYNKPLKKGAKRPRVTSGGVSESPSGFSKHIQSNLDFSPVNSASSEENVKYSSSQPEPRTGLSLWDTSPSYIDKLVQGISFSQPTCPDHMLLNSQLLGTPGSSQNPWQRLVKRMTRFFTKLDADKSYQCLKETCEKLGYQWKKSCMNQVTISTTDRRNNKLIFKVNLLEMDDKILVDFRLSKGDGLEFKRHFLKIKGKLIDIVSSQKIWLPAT
T9 sequence (Q16539 whole entry): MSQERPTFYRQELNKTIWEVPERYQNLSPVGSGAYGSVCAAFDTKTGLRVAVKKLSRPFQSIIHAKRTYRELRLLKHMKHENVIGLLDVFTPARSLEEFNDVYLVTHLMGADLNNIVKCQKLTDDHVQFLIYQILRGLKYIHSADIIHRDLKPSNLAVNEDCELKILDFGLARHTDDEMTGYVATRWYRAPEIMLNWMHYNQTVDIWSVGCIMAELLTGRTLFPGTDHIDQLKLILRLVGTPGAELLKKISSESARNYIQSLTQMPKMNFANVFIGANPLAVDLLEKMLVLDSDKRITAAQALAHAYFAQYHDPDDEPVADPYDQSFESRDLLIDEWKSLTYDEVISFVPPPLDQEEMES

What is called GI50 is the concentration at which growth is held to half of that of the control. By Kd is commonly meant the concentration at which binding is half-saturated. A higher Kd goes with a looser complex. As for `COc1cc2c(NC3CCN(C)CC3)cc(-c3ccc(C)o3)nc2cc1OCCCN1CCCC1` [CM-272, 6-methoxy-2-(5-methyl-2-furyl)-N-(1-methyl-4-piperidyl)-7-(3-pyrrolidin-1-ylpropoxy)quinolin-4-amine], in the test with CEMO-1 cells, the survival result is on record as “not able to prolong survival”. Also, the GI50 with UM-UC-1 was 842 nM; in the test with LAL-CUN-13, 1400 nM; in the test with SU-DHL-4 it was 1160 nM; in the test on OCI-Ly1, 1010 nM; in the test on NP18, 577 nM. Further, the remaining binding at 10 µM is 100% on MARK3; 100% at KIT(D816V); 99% at CHEK1; 90% on TIE2; 96% at FAK; 100% on KIT(V559D,T670I). In addition, the remaining binding at 10 µM on RET worked out at 100%; on AXL, 100%; at p38-alpha it was 96%; on ADCK3 it was 100%; in test [1] (setting [3]) it was 0%; at ALK (setting [3]) it was 0.5%. Besides, the remaining binding at 10 µM on PIK3CG turned out to be 88%; in test [2], 46%; at BMPR2, 32%; at RIOK2, 27%. Moreover, the Kd amounted to 1800 nM in test [1] (KINOMEscan) and 820 nM on ALK (KINOMEscan).

The record behind these values is paper PMC5458547, “Discovery of first-in-class reversible dual small molecule inhibitors against G9a and DNMTs in hematological malignancies” (Nature Communications, 2017).
